Several values for one entry are separate records, joined by “and”; a condition that tells them apart may be missing. Equal values may be shown once. Square brackets hold non-standard residues; d marks the D form. Peptide text beside a SMILES is read from it.
What was measured:
Trex1^-/- BMDMs = test: qPCR of Ifnb1, Cxcl10, Il6 mRNA in Trex1-deficient macrophages; type: cell-based, mouse; parameters: key to Ifnb1 mRNA level (Fig. 7a) / Cxcl10 mRNA level (Fig. 7a) / Il6 mRNA level (Fig. 7a): fold change relative to WT BMDM group
Experimental: Fold changes are relative to WT BMDM group. p = 0.002 (Ifnb1); p = 0.008 (Cxcl10); p = 0.0005 (Il6). b Schematic representation illustrating the experimental design in the Trex1^-/- mice model of autoimmune diseases. c Survival curves of WT and Trex1^−/− mice treated with DMSO or XQ2B (10 mg/kg) every other day for 11 consecutive days (n = 10 mice per group). p = 0.0352. d WT mice (n = 6) or Trex1^-/- mice (n = 6) were injected intravenously with DMSO or 10 mg/kg XQ2B every other day for 7 consecutive days. Representative H&E-stained tissue sections from WT or Trex1^-/- mice treated with DMSO or XQ2B. The panels are at ×20 magnification. […] Scale bar, 50 μm. Data are representative of two independent experiments with similar results in (f), or three independent experiments in (a) or two independent experiments in (d, e). […] Source data are provided as a Source Data file.
The indicated cells were stimulated with either ISD (Sangon Biotech), HSV-1 (Provided by Dr. Zhengfan Jiang), HSV60mer (Sangon Biotech), SATE-cddA[70], 2’3’-cGAMP (Invivogen, Cat# tlrl-nacga23-1), ADU-S100 (MedChemExpress, Cat# HY-12885A) or Poly(I:C) (Invivogen, Cat# tlrl-pic) after XQ2 or XQ2B treatment. Total RNA was isolated from indicated cells that incubated with the drugs for indicated time or mice tissues by using NucleoZOL reagent (MACHEREY-NAGEL) according to the manufacturer’s instructions. The quantifications of mRNA levels were carried out by real-time PCR using a PerfectStart® Uni RT&qPCR Kit (TransGen Biotech) on the QuantStudio 5 qPCR machine (Applied Biosystems). Samples were carried out in triplicate and the target CT values were normalized to GAPDH CT values. Primers of qPCR used in this study can be found in Supplementary Table S2.
C57BL/6 6–8 weeks old wild type (WT) mice were purchased from Gempharmatech. C57BL/6 Trex1^+/- mice were purchased from Cyagen. Trex1^-/- mice were generated by further mating the male and female Trex1^+/- mice, and 8-week-old male Trex1^-/- mice were used in the experiment. Mice were housed in groups of up to 5 mice/cage at 18 °C − 24 °C ambient temperatures with 40–60% humidity. Mice were maintained on a 12 h light/ dark cycle 6 am to 6 pm. Food and water were available ad libitum. Femurs and tibias were removed from sex-matched mice of 6–8 weeks old, and the ends were clipped. Marrow was pushed from bones by using a syringe, and cell clumps were broken apart into cell particles by pipetting in PBS, and passed through a 70 μm cell strainer. Cells were resuspended in red blood cell lysis buffer (Solarbio) for 5 min after being centrifuged with 200 × g for 5 min, and were resuspended in cell culture media (DMEM) with an additional M-CSF (50 ng/ml) after centrifugation, and then were seeded into a 12-well plate. […]

hcGAS-FL and Cy3-ISD = target: T1, hcGAS-FL and Cy3-ISD (Homo sapiens, UniProt Q8N884); test: In vitro phase separation assay (cGAS-DNA condensates); type: biochemical; details: for Droplets (%), Fig. S6b: hcGAS-FL 100nM, Cy3-ISD 100nM; for Droplets (%), Fig. 4e: hcGAS-FL 500 nM, Cy3-ISD 500 nM; for Droplets (%), Fig. S6d: hcGAS-FL 1 μM, Cy3-ISD 1 μM
T1 construct: The gene encoding full-length human cGAS (hcGAS-FL); 6xHis-SUMO (N, cleaved yes); made in house; host or cells: Escherichia coli BL21 (DE3)
T1 sequence (Q8N884 whole entry): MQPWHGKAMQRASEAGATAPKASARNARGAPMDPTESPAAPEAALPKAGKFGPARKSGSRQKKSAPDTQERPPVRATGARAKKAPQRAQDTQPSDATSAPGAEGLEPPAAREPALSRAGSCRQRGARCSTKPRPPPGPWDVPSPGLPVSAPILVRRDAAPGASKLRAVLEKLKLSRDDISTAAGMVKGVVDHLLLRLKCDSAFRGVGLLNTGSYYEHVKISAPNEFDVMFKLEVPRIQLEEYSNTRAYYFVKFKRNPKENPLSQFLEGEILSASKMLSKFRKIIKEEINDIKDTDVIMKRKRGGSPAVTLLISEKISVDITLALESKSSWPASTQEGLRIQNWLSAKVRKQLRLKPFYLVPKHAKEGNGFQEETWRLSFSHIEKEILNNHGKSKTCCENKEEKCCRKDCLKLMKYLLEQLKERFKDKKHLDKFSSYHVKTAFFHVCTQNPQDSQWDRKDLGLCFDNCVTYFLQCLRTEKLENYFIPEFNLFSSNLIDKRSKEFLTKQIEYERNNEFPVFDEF
Experimental: Purified hcGAS-FL and Cy3-labeled DNA (Cy3-ISD) with the indicated concentrations were mixed with DMSO (0.1%) or indicated doses of XQ2 in 96-well plates (JingAn Biological) pre-coated with 20 mg/ml BSA (Sigma). Mixtures were incubated in buffer (20 mM Tris-HCl, pH 7.5, 150 mM NaCl and 1 mg/ml BSA) with standing at 37 °C in a total reaction volume of 50 μL. Phase-separated droplets were imaged at the indicated time by using Nikon A1R+ confocal microscope with a 60× oil objective, Nikon A1 camera, and X-Cite 120LED laser. Images were analyzed using FIJI software. The number of droplets was measured as the percentage of the imaging area occupied by Cy3-labeled components, and was plotted using GraphPad Prism 8.

[1] = target: T2, truncated cGAS (hcGAS-ΔN, residues 147–522) (Homo sapiens, UniProt Q8N884); test: Surface plasmon resonance (SPR); type: binding
T2 construct: N-terminally truncated human cGAS (hcGAS-ΔN, residues 147–522); 6xHis-SUMO (N, cleaved yes); made in house; host or cells: Escherichia coli BL21 (DE3)
T2 sequence (Q8N884 147-522, stated change not applied): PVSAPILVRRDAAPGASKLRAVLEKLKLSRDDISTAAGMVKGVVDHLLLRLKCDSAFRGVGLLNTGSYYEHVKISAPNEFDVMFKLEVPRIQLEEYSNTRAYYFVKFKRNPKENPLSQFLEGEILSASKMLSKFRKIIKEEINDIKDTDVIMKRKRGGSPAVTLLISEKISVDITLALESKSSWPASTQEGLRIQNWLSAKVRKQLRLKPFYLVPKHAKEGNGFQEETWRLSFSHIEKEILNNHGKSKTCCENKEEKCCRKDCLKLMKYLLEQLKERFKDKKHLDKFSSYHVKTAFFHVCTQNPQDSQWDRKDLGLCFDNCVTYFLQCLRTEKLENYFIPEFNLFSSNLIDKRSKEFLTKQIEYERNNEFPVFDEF
Experimental: (§1) All SPR binding studies were performed with a Biacore 8 K instrument (GE Healthcare Life Sciences). hcGAS-FL / hcGAS-ΔN (1 mg mL^−1) was immobilized in a CM5 chip by EDC/NHS method. The tested peptide was diluted with running buffer (20 mM HEPES, pH 7.5, 125 mM KCl,10 mM MgCl2). All the samples contained the same concentration of DMSO (0.5%). The tested peptide was injected at a flow rate of 30 μL min^−1 for 200 s of association, followed by 200 s of disassociation at 25 °C. The final graphs were obtained by subtracting blank sensorgrams. The data were analyzed with Biacore Insight Evaluation software.

[2] = target: T3, full-length human cGAS (hcGAS-FL) (Homo sapiens, UniProt Q8N884); test: Surface plasmon resonance (SPR); type: binding
T3 construct: The gene encoding full-length human cGAS (hcGAS-FL); 6xHis-SUMO (N, cleaved yes); made in house; host or cells: Escherichia coli BL21 (DE3)
T3 sequence (Q8N884 whole entry): as the sequence (Q8N884 whole entry) above
Experimental: as §1

[3] = target: T4, hcGAS-FL (D191R) mutant + FAM-ISD (Homo sapiens, UniProt Q8N884, D191R); test: Fluorescence polarization competition of FAM-ISD binding
T4 construct: The gene encoding full-length human cGAS (hcGAS-FL); 6xHis-SUMO (N, cleaved yes); made in house; host or cells: Escherichia coli BL21 (DE3)
T4 sequence (Q8N884 whole entry D191R): as the sequence (Q8N884 whole entry) above, with D191R counted along it
Text: Samples were dispensed in 30 μ L final volumes per well into a 384-well flat-bottom black plate (Corning 3575). The polarization was detected by a microplate reader (BioTek Synergy H1) with a fluorescence polarization filter cube (excitation wavelength: 485 ± 10 nm; emission wavelength: 528 ± 10 nm) immediately.

L929 cells = test: HSV-1 cytopathogenic effect, crystal violet staining; type: cell-based, mouse; details: 10 μM
Experimental: L929 cells were seeded into 12-well plates at a density of 5 × 10^5 cells per well, and living cells were stained with crystal violet staining solution (Beyotime Biotechnology) according to the manufacturer’s instructions.

Question: `CC(C)C[C@@H]1NC(=O)[C@H](CCCNC(=N)N)NC(=O)[C@H](C(C)C)NC(=O)[C@@H]2CCCN2C(=O)[C@@H](Cc2ccccc2)NC(=O)[C@H](CC(C)C)NC(=O)[C@H](CCCNC(=N)N)NC(=O)[C@H]([C@@H](C)O)NC(=O)[C@H](C)NC(=O)[C@@H](Cc2ccccc2)NC1=O` [XQ2B] (cyclo([dF]ATRL[dF]PVRL)) was tested. Which “expression of Ifnb1, Cxcl10 and Il6 in Trex1^-/- BMDMs” value (Trex1^-/- BMDMs; 10 μM, 24 h) did it give?
Answer: significantly suppressed the expression of Ifnb1, Cxcl10 and Il6 in Trex1^-/- BMDMs

Question: And the “Cxcl10 mRNA level (Fig. 7a)” value (Trex1^-/- BMDMs; Trex1-/- BMDMs, XQ2B vs DMSO)?
Answer: 8.243 and 7.282 and 8.602

Question: And the “Ifnb1 mRNA level (Fig. 7a)” value (Trex1^-/- BMDMs; Trex1-/- BMDMs, XQ2B vs DMSO)?
Answer: 2.99 and 2.308 and 2.77

Question: And the “Il6 mRNA level (Fig. 7a)” value (Trex1^-/- BMDMs; Trex1-/- BMDMs, XQ2B vs DMSO)?
Answer: 7.711 and 7.588 and 8.111

Question: With `CC(C)C[C@@H]1NC(=O)[C@H](CCCNC(=N)N)NC(=O)[C@H](C(C)C)NC(=O)[C@@H]2CCCN2C(=O)[C@@H](Cc2ccccc2)NC(=O)[C@H](CC(C)C)NC(=O)[C@H](CCCNC(=N)N)NC(=O)[C@H](C(C)C)NC(=O)[C@H](C)NC(=O)[C@@H](Cc2ccccc2)NC1=O` [XQ2, Cyclo (LfAVRLfPVR)] (cyclo(L[dF]AVRL[dF]PVR)) as the compound, how does the “DNA-induced liquid phase condensation of cGAS” value (hcGAS-FL and Cy3-ISD) read?
Answer: efficiently suppressed DNA-induced liquid phase condensation of cGAS in a dose-dependent manner

Question: What about the “Droplets (%), Fig. S6b” value (hcGAS-FL and Cy3-ISD; XQ2 10 μM) of the same compound?
Answer: 33.0922% and 37.8074% and 43.9421%

Question: What about the “Droplets (%), Fig. S6b” value (hcGAS-FL and Cy3-ISD; XQ2 20 μM) of the same compound?
Answer: 10.262% and 16.2032% and 13.5624%

Question: What about the “Droplets (%), Fig. S6b” value (hcGAS-FL and Cy3-ISD; XQ2 40 μM) of the same compound?
Answer: 8.642% and 8.102% and 4.321%

Question: What about the “Droplets (%), Fig. 4e” value (hcGAS-FL and Cy3-ISD; 30 min 37 °C, XQ2 10 μM) of the same compound?
Answer: 73.0692% and 66.6865% and 62.8824%

Question: What about the “Droplets (%), Fig. 4e” value (hcGAS-FL and Cy3-ISD; XQ2 20 μM) of the same compound?
Answer: 40.7983% and 55.7848% and 51.751%

Question: What about the “Droplets (%), Fig. 4e” value (hcGAS-FL and Cy3-ISD; XQ2 40 μM) of the same compound?
Answer: 25.4542% and 20.5523% and 21.4459%

Question: And the “Droplets (%), Fig. S6d” value (hcGAS-FL and Cy3-ISD; XQ2 10 μM)?
Answer: 79.2214% and 80.5313% and 77.1189%

Question: What about the “Droplets (%), Fig. S6d” value (hcGAS-FL and Cy3-ISD; XQ2 20 μM) of the same compound?
Answer: 68.3204% and 65.6495% and 68.2188%

Question: What about the “Droplets (%), Fig. S6d” value (hcGAS-FL and Cy3-ISD; XQ2 40 μM) of the same compound?
Answer: 48.2853% and 49.5952% and 47.6049%

Question: And the “Response (RU), SPR, Fig. S4b” value ([1]; XQ2 2.5 μM)?
Answer: 32.0968 RU

Question: What about the “Response (RU), SPR, Fig. S4b” value ([1]; XQ2 5 μM) of the same compound?
Answer: 115.953 RU

Question: And the “Response (RU), SPR, Fig. S4b” value ([1]; XQ2 10 μM)?
Answer: 275.186 RU

Question: And the Kd ([1]; hcGAS-ΔN, Fig. S4b)?
Answer: 86.5 ± 76.2 µM

Question: And the “Response (RU), SPR, Fig. 3a” value ([2]; XQ2 2.5 μM)?
Answer: 57.4165 RU

Question: What about the “Response (RU), SPR, Fig. 3a” value ([2]; XQ2 5 μM) of the same compound?
Answer: 140.669 RU

Question: What about the “Response (RU), SPR, Fig. 3a” value ([2]; XQ2 10 μM) of the same compound?
Answer: 252.736 RU

Question: And the Kd ([2]; hcGAS-FL, one-to-one binding model, ± 95% CI)?
Answer: 35.9 µM and ~35 µM

Question: What about the “inhibition of dsDNA binding to hcGAS-FL (D191R), FP” value [3] of the same compound?
Answer: markedly reduced

Question: What about the “HSV-1-induced cytopathogenic effect in L929 cells” value (L929 cells) of the same compound?
Answer: promotion of XQ2 on HSV-1-induced cytopathogenic effect in mouse fibroblast L929 cells

Source: paper PMC10545747, “Development of cyclopeptide inhibitors of cGAS targeting protein-DNA interaction and phase separation” (Nature Communications, 2023)
